According to patent US7615361B2, “Toxicity screening methods” (Ceetox, Inc., priority 2006, dated 2009):
Where two headings read alike, the source gives them in different places.

Experiments:
[1] = Cell number (propidium iodide); type: cell-based, rat; details: rat
Protocol: (§1) One test compound (Compound A) was received as dry powder and evaluated for potential cytotoxicity in a battery of in vitro assays. The compound was tested using both rat cardiomyocytes (CM) from rat neonates and a rat hepatoma (H4IIE) cell line. […] The cell supernatant or the cells themselves were harvested for biochemical analysis. General cytotoxicity was evaluated by monitoring membrane integrity, mitochondrial function, cell proliferation, oxidative stress, and apoptosis. In addition, interaction with P-glycoprotein (PgP) on H4IIE cells and solubility of the test compound were also assessed. The means of each exposure group (n=3-7) were calculated for each assay performed.
(§2) Experimental Protocol: The test compound was provided and stored at 4° C. until needed. Dosing solutions were prepared in complete culture medium. The rat hepatoma (H4IIE) cell line was used as the test system.
Cell Proliferation: Cell proliferation in each well was measured with propidium iodide (PI). This specific nucleic acid binding dye fluoresces when intercalated within the nucleic acids. The 15 nm shift enhances PI fluorescence approximately 20 times while the excitation maxima are shifted 30-40 nm. During method development experiments, it was determined that Triton-X-100 was the best solution to permeabilize the H4IIE cells thereby allowing the PI access to intracellular RNA and DNA. Fluorescence was measured using a Packard Fusion plate reader or equivalent reader at 540 nm excitation and 610 nm emission.
Cell Proliferation: After incubation, the test compound was removed and Triton X-100 solution containing propidium iodide is added. The plate was incubated and read on a fluorescent plate reader. Data was collected as relative fluorescent units (RFU). The blank was subtracted from the final well RFU. It represents the average of the first and last columns which contain no cells on that particular plate. The controls are untreated cells allowed to grow on the same plate. The compounds are represented by several separate RFU data points for each of the tested concentrations. The percent change relative to controls was calculated by dividing the average RFU by the control cell RFU and multiplying by 100.

[2] = MemTox membrane leakage (AK / α-GST); type: cell-based, rat; details: rat
Protocol: as §1, §2
Membrane Leakage (α-Glutathione S-transferase and/or Adenylate Kinase): The presence of Adenylate Kinase (AK) or α-Glutathione S-transferase (α-GST), both enzyme leakage markers, was measured in the culture medium using an activity assay for Adenylate Kinase and/or an ELISA assay for α-GST. At the end of the exposure period, the medium covering the cells in each well was removed and placed into new 96-well plates with appropriate labeling. […] Luminescence (AK) values were measured with a Packard Fusion or equivalent plate reader, and absorbance (α-GST) values were measured with a Packard SpectraCount™ or equivalent reader at 450 nm and reference absorbance at 650 nm.
Membrane Leakage (α-Glutathione S-transferase and/or Adenylate Kinase): Leakage of Adenylate Kinase or α-GST from the cell into the culture medium was determined by collecting the culture medium at the end of the exposure period. Thus, the values measured represent total enzyme leakage lost over the exposure period. The control for 100% dead or maximum enzyme release was based on cells treated with 1 mM digitonin at the time of dosing. Percent dead cells relative to digitonin treated cells was determined and then subtracted from 100% to yield the percent live cells.

[3] = MTT reduction; type: cell-based, rat
Protocol: as §1
(§3) Tetrazolium Dye Reduction: 3-[4,5-dimethylthiazol-2-yl]

[4] = MTT reduction; type: cell-based, rat; details: rat
Protocol: as §1, §2, §3

[5] = Intracellular ATP levels; type: cell-based, rat; details: rat
Protocol: as §1, §2
Intracellular ATP Levels: Cellular Adenosine triphosphate (ATP) was determined with an assay based on a reaction between ATP+D-luciferin+oxygen catalyzed by luciferase to yield Oxyluciferin+AMP+PPi+CO2+light. The emitted light is proportional to the amount of ATP present. […] In addition, a unique cell lysis reagent inhibits endogenous ATPases and therefore stabilizes cellular ATP by preventing its degradation to ADP. ATP is present in all-living cells and declines rapidly upon cell death. In addition, this assay in combination with the MTT assay provides an indicator of mitochondrial activity and energy status of the cell.
Plates were analyzed immediately or stored at −20° C. until needed. On the day of analysis, the plates were thawed and calibration curve prepared with ATP in the same liquid matrix as samples. ATP was quantified by adding ATP substrate solution and then reading luminescence on a Packard Fusion Luminescence or equivalent plate reader.
Intracellular ATP Levels: ATP levels in treated cells could be determined by using the regression coefficients obtained from the linear regression analysis of the calibration curve. Thus, values could be expressed as pmoles ATP/million cells. Background corrected luminescence was used to determine percent change relative to controls by dividing treated values by control values and multiplying by 100.

[6] = Intracellular total glutathione (GSH); type: cell-based, rat; details: rat
Protocol: as §1

[7] = system: H4IIE cells; assay: Membrane lipid peroxidation (8-isoprostane ELISA); type: cell-based, rat
Protocol: (§4) One test compound (Compound A) was received as dry powder and evaluated for potential cytotoxicity in a battery of in vitro assays. The compound was tested using both rat cardiomyocytes (CM) from rat neonates and a rat hepatoma (H4IIE) cell line. […] Camptothecin and rotenone were included as positive control compounds. The cell supernatant or the cells themselves were harvested for biochemical analysis. General cytotoxicity was evaluated by monitoring membrane integrity, mitochondrial function, cell proliferation, oxidative stress, and apoptosis. In addition, interaction with P-glycoprotein (PgP) on H4IIE cells and solubility of the test compound were also assessed. The means of each exposure group (n=3-7) were calculated for each assay performed. Intra assay variation well-to-well was typically less than 10% with plate to plate variation typically less than 20%.
as §2

[8] = system: P-glycoprotein (PgP); assay: P-glycoprotein (PgP) binding: MTT with and without cyclosporin A; type: cell-based, rat; details: for % Difference: 1-20% low, 20-50% moderate, 50-100% high PgP interaction
Protocol: Several antiviral drugs are substrates for P-glycoprotein transporter (PgP).
P-glycoprotein (PgP) transport proteins are expressed in the bile canalicular membrane of normal liver. However, in neoplastic cells it is not uncommon to have expression of this transporter system in the plasma membrane. […] The existence of these transporters was evaluated with the Calcein-AM assay and with known substrates of PgP.

[9] = system: rat cardiomyocytes; assay: Membrane lipid peroxidation (8-isoprostane ELISA); type: cell-based
Protocol: as §4

[10] = H4IIE 24 HR, MTT, 50 μM, with cyclosporin A
[11] = H4IIE 24 HR, MTT, 50 μM, without CSA

SMILES	CC50 at 24 h ([1]; Cell Number TC50) [µM]	CC50 at 24 h ([2]; MemTox TC50) [µM]	CC50 at 24 h ([3]; rat) [µM]	CC50 at 24 h ([4]; MTT TC50) [µM]	CC50 at 24 h ([5]; ATP TC50) [µM]	CC50 at 24 h [6] [µM]	Membrane Lipid Peroxidation ([7]; rat, 24 h)	% Control (Compound + CSA) [8, 10] [%]	% Control (Compound) [8, 11] [%]	Membrane Lipid Peroxidation ([9]; rat, 24 h)	% Difference ([8]; H4IIE 24 HR) [%]	further results
Nc1nc(NC2CC2)c2ncn([C@H]3C=C[C@@H](CO)C3)c2n1 [ABACAVIR, abacavir]	> 300	> 300	> 300	> 300	154	> 300	0	104.8	97.6			
COc1cccc2c1C(=O)c1c(O)c3c(c(O)c1C2=O)C[C@@](O)(C(=O)CO)C[C@@H]3O[C@H]1C[C@H](N)[C@H](O)[C@H](C)O1 [ADRIAMYCIN, Adriamycin]	18		1	13		1	0	0.0	8.0	0	76.9	CC50 at 1 h ([3]; rat): > 300 µM; CC50 at 3 h ([3]; rat): 41 µM; CC50 at 6 h ([3]; rat): 18 µM; CC50 at 1 h [6]: > 300 µM; CC50 at 3 h [6]: 61 µM; CC50 at 6 h [6]: 23 µM; Membrane Lipid Peroxidation ([9]; rat, 1 h): 0; Membrane Lipid Peroxidation ([9]; rat, 3 h): 0; Membrane Lipid Peroxidation ([9]; rat, 6 h): 0; % Control (Compound + CSA) ([8]; H4IIE 24 HR, MTT, 50 μM, with cyclosporin A, listed as DOXORUBICIN): 13.7%; % Control (Compound) ([8]; H4IIE 24 HR, MTT, 50 μM, without CSA, listed as DOXORUBICIN): 59.3%
CC[C@@]1(O)C(=O)OCc2c1cc1n(c2=O)Cc2cc3ccccc3nc2-1 [CAMPTOTHECIN, Camptothecin]								26.0	23.6			CC50 at 24 h ([1]; H4IIE rat hepatoma cells, H4IIE, 24 HR exposure, read-out: Cell Number TC50): 4 µM; CC50 at 24 h ([2]; H4IIE rat hepatoma cells, H4IIE, 24 HR exposure, read-out: MemTox TC50): > 300 µM; CC50 at 24 h ([3]; neonatal rat cardiomyocytes, rat cardiomyocytes (CM), 24 HR exposure, read-out: MTT TC50): > 300 µM; CC50 at 24 h ([4]; H4IIE rat hepatoma cells, H4IIE, 24 HR exposure, read-out: MTT TC50): 1 µM; CC50 at 24 h ([5]; H4IIE rat hepatoma cells, H4IIE, 24 HR exposure, read-out: ATP TC50): 1 µM; CC50 at 24 h ([6]; neonatal rat cardiomyocytes, CM, 24 HR, read-out: Total GSH TC50): > 300 µM; Membrane Lipid Peroxidation ([9]; CM, 24 HR): 0; Membrane Lipid Peroxidation ([7]; H4IIE, 24 HR): 1 (1 = Modest increase with maximum values ≦15 pg/mL)
COc1cccc2c1C(=O)c1c(O)c3c(c(O)c1C2=O)C[C@@](O)(C(C)=O)C[C@@H]3O[C@H]1C[C@H](N)[C@H](O)[C@H](C)O1 [DAUNORUBICIN, daunorubicin]			6			< 1	0			0		CC50 at 24 h [1]: 8 µM; CC50 at 24 h [2]: 41 µM; CC50 at 24 h [4]: 14 µM; CC50 at 24 h [5]: 7 µM; % Control (Compound + CSA) [8]: 5.5%; % Control (Compound) [8]: 9.3%
CC(C)Nc1cccnc1N1CCN(C(=O)c2cc3cc(NS(C)(=O)=O)ccc3[nH]2)CC1 [DELAVIRDINE, delavirdine]	> 300	> 300	252	218	257	> 300		62.3	89.8	0	30.7	
O=C1Nc2ccc(Cl)cc2[C@@](C#CC2CC2)(C(F)(F)F)O1 [EFAVIRENZ, efavirenz]	169	181	79	161	162	83	0	70.1	89.0		21.3	
COc1cccc2c1C(=O)c1c(O)c3c(c(O)c1C2=O)C[C@@](O)(C(=O)CO)C[C@@H]3O[C@H]1C[C@H](N)[C@@H](O)[C@H](C)O1 [EPIRUBICIN, epirubicin]	31	37	16	81	32	13	0	11.8	59.7	0	80.3	
CC(=O)[C@]1(O)Cc2c(O)c3c(c(O)c2[C@@H](O[C@H]2C[C@H](N)[C@H](O)[C@H](C)O2)C1)C(=O)c1ccccc1C3=O [IDARUBICIN, idarubicin]	4	30	< 1	3	2	< 1	0	0.0	0.8	0		
Cc1cccc(C)c1OCC(=O)N[C@@H](Cc1ccccc1)[C@@H](O)C[C@H](Cc1ccccc1)NC(=O)[C@H](C(C)C)N1CCCNC1=O [LOPINAVIR, lopinavir]	> 300	> 300	72	184	195	69	0	82.1	98.0	0	16.2	
O=C1c2c(O)ccc(O)c2C(=O)c2c(NCCNCCO)ccc(NCCNCCO)c21 [MITOXANTRONE, mitoxantrone]	< 1	> 300	1	> 300	5	< 1	0	10.4	69.9	0	85.1	
